Assay [1] addresses T1, Serine/threonine-protein phosphatase (Candida dubliniensis (strain CD36 / CBS 7987 / NCPF 3949 / NRRLY-17841) (Yeast), UniProt B9W6M3).
T1 sequence (B9W6M3 whole entry): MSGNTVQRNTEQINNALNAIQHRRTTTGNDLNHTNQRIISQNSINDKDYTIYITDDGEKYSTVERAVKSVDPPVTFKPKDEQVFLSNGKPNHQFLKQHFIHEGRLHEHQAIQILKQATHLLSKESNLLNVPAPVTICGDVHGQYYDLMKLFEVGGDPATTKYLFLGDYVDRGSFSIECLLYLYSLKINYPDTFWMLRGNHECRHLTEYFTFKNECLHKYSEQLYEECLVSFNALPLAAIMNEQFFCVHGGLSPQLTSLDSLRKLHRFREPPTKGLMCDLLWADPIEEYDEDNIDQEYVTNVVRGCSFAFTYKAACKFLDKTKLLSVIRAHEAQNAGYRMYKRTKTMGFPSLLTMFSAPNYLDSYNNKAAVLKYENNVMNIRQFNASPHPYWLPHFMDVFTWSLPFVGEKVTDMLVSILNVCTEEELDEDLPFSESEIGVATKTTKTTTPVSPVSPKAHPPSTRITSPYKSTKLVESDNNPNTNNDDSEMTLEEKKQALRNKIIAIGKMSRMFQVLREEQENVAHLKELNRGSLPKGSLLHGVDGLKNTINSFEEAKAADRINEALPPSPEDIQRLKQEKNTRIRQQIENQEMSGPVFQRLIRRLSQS
In words: calcineurin pathway inhibitors in yeast reporter, dose response, S. cerevisiae, CDRE-lacZ, luminescence, secondary (AID 2388).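 Further: yeast reporter cells carrying a calcineurin-responsive lacZ construct stimulated with calcium chloride; luminescent beta-galactosidase reporter signal in whole cells rather than isolated phosphatase activity; potency for inhibition where a drop in reporter signal means calcineurin blockade.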 The assay is classed as functional, cell-based.

Assay [2] concerns the target Dual specificity tyrosine-phosphorylation-regulated kinase 1A (Homo sapiens, UniProt Q13627). The class given is functional.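 Further: measured against DYRK1A as one member of a broad kinome profiling panel.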
Assay [3] has as its target Serine/threonine-protein kinase Chk2 (Homo sapiens, UniProt O96017). The class given is functional.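 Further: CHEK2 entry within a kinome-wide screening panel.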
Assay [4] has as its target Casein kinase I isoform delta (Homo sapiens, UniProt P48730). The class given is functional.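 Further: measured as one member (CSNK1D) of a kinome panel.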
The target of assay [5] is Lymphokine-activated killer T-cell-originated protein kinase (Homo sapiens, UniProt Q96KB5). The class given is functional.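 Further: value comes from a kinase panel screen in which TOPK was one of the panel members.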
In assay [6] the target is Serine/threonine-protein kinase PAK 1 (Homo sapiens, UniProt Q13153). The class given is functional.
Assay [7] has as its target Protein kinase C gamma type (Homo sapiens, UniProt P05129). The class given is functional.
Assay [8] has as its target 3-phosphoinositide-dependent protein kinase 1 (Homo sapiens, UniProt O15530). The class given is functional.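 Further: value comes from the Navigating the Kinome panel, PDPK1 member.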
In assay [9] the target is Platelet-derived growth factor receptor beta (Homo sapiens, UniProt P09619). The assay is classed as functional.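 Further: value comes from a kinome panel, with PDGFRB tested as one panel member.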
The target in assay [10] is MAP/microtubule affinity-regulating kinase 4 (Homo sapiens, UniProt Q96L34). The experiment in a line: Navigating the Kinome. Panel member name: MARK4. The class given is functional.
Assay [11] deals with Inhibitor of nuclear factor kappa-B kinase subunit epsilon (Homo sapiens, UniProt Q14164). In words: Navigating the Kinome. Panel member name: IKBKE. The class given is functional.
Assay [12] addresses Tyrosine-protein kinase receptor TYRO3 (Homo sapiens, UniProt Q06418). The class given is functional.

The source made the active and inactive calls.

Sequence of MAP/microtubule affinity-regulating kinase 4 (Q96L34 whole entry): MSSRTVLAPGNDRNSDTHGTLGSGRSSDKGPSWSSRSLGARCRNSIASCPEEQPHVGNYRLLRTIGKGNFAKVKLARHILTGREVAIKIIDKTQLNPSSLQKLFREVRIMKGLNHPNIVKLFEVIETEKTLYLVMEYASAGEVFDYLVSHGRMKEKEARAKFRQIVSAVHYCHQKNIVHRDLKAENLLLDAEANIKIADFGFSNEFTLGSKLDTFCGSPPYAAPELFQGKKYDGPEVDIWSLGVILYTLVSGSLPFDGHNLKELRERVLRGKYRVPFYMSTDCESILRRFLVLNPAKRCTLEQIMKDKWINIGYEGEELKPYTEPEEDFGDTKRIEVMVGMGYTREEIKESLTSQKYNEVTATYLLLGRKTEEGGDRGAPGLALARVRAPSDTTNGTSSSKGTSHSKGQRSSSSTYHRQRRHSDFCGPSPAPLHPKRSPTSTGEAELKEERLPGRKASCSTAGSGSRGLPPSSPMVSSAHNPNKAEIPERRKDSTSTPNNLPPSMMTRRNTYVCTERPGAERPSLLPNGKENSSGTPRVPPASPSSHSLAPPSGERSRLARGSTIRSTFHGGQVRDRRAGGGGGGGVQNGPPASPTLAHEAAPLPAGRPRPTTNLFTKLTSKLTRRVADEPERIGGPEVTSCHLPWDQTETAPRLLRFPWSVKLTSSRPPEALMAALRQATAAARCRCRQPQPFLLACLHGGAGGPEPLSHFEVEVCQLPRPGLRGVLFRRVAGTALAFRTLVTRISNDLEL
Sequence of 3-phosphoinositide-dependent protein kinase 1 (O15530 whole entry): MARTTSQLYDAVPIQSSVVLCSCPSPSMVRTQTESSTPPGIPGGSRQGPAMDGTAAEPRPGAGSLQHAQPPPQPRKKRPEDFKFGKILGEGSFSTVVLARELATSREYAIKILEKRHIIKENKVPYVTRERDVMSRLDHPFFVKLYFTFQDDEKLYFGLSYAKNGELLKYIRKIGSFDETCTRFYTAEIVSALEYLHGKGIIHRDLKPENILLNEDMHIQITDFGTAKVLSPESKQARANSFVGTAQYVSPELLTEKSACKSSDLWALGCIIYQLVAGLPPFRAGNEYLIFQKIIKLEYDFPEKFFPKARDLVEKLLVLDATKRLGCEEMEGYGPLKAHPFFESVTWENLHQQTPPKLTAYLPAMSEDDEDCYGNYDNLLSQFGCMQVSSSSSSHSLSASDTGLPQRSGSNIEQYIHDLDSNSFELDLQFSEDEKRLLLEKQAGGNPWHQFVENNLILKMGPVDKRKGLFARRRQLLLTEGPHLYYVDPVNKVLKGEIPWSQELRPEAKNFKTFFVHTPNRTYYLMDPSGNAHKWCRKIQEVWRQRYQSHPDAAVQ
Sequence of Serine/threonine-protein kinase PAK 1 (Q13153 whole entry): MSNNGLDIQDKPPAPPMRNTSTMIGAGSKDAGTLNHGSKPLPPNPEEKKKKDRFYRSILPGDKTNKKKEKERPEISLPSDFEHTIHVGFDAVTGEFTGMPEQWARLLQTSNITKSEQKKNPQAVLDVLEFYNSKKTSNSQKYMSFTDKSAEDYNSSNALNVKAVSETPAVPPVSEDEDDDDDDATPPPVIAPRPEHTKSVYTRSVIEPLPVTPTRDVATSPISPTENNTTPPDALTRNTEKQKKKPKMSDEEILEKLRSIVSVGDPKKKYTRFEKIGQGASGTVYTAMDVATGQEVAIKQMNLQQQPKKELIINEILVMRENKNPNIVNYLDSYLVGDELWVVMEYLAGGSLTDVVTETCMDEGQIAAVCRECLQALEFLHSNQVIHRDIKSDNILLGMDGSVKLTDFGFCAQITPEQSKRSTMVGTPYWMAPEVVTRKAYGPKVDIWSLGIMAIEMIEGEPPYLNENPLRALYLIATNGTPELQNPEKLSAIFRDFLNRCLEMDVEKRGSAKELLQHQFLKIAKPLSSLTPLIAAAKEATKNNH
Sequence of Lymphokine-activated killer T-cell-originated protein kinase (Q96KB5 whole entry): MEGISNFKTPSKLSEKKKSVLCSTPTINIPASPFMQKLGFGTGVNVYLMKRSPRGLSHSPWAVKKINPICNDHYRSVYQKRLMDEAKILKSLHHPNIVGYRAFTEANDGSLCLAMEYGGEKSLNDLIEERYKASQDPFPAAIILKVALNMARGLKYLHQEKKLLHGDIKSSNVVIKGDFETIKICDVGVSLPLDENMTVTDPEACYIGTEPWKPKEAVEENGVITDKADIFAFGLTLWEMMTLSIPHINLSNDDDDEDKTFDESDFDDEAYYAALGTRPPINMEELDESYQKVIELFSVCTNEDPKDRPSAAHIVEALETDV
Sequence of Casein kinase I isoform delta (P48730 whole entry, canonical isoform): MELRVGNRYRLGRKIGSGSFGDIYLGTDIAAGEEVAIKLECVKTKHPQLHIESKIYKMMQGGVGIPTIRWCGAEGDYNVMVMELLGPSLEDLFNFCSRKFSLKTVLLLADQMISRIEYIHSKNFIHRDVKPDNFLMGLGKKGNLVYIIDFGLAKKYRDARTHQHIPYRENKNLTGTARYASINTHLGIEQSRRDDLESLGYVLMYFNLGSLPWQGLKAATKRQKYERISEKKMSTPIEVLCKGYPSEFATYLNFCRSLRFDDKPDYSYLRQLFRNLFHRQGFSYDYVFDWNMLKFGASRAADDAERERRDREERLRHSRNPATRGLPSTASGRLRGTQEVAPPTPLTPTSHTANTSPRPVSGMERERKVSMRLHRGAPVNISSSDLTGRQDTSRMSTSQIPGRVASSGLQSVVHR
Sequence of Platelet-derived growth factor receptor beta (P09619 whole entry): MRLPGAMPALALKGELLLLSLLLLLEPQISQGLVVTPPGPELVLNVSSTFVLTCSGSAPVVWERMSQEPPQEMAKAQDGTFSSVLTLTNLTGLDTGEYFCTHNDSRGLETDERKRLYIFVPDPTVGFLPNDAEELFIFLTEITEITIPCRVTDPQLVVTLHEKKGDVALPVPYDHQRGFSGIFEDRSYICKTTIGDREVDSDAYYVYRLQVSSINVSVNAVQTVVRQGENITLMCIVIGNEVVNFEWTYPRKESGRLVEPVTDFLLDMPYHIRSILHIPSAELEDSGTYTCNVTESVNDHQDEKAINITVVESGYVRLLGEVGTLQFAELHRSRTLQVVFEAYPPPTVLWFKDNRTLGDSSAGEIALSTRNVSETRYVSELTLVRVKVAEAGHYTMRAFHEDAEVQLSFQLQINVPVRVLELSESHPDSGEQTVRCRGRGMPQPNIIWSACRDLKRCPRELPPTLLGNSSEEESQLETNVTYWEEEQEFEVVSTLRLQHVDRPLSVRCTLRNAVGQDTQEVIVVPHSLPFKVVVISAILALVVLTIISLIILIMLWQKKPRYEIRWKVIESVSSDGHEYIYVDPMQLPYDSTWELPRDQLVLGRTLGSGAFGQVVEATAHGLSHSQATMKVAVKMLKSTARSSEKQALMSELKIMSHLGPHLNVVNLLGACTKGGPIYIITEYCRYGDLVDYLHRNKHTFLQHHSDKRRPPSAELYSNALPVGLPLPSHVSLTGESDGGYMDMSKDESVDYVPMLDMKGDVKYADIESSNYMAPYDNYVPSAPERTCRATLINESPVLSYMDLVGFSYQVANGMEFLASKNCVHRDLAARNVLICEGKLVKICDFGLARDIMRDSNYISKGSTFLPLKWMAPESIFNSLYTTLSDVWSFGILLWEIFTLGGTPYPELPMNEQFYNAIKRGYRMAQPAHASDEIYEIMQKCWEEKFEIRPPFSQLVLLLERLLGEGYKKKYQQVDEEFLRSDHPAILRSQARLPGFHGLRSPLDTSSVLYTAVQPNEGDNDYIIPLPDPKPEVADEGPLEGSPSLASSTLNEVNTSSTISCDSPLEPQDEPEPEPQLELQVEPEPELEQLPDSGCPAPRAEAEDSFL
Sequence of Serine/threonine-protein kinase Chk2 (O96017 whole entry, canonical isoform): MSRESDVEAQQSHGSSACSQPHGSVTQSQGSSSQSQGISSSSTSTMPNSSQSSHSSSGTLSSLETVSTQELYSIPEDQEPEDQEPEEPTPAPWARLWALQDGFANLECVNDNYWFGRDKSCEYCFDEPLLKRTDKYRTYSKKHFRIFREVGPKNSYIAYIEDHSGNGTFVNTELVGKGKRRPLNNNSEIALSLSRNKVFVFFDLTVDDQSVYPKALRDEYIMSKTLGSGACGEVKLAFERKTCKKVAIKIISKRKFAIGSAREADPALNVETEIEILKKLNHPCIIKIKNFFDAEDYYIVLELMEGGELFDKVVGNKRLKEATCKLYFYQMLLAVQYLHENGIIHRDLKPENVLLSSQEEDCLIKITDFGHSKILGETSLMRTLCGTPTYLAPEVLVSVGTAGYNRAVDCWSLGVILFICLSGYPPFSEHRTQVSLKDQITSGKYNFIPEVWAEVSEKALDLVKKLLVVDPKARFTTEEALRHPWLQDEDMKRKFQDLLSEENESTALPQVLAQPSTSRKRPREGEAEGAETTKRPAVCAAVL

By EC50 is commonly meant the concentration needed to bring the measured effect to its halfway point. Consider `CCCn1nc([N+](=O)[O-])c(C(C#N)c2nc3ccccc3s2)c(Cl)c1=O` (configuration not stated), for which the EC50 in [1] is > 180000 nM (inactive).

In general, Ki refers to the dissociation constant of the complex between target and ligand, obtained from inhibition or displacement. `NCCCn1cc(-c2cc(-c3cc4ccccc4s3)c3[nH]ncc3c2)c2nc(N)ncc21`: the Ki in assay [2] was 1000 nM (active); in assay [3], 20 nM (active); in assay [4] it was 126 nM (active); in [5] it was 2510 nM (active); in assay [6] it was 63.1 nM (active); in [7], 200 nM (active). The Ki in assay [8] is 1.58 nM (active); in [9], > 2000 nM (inactive); in assay [10], 7.94 nM (active); in assay [11], > 3160 nM (inactive); in assay [12], > 2510 nM (inactive).

These data come from ChEMBL document CHEMBL1201862, “PubChem BioAssay data set” (2004).
